According to paper PMC7754465, “Multiparameter Kinetic Analysis for Covalent Fragment Optimization by Using Quantitative Irreversible Tethering (qIT)” (Chembiochem, 2020):

Tests used:
[1] = molecular target: T1, Cdk2(ES) = Cdk2(F80C,C177A) (Homo sapiens, UniProt P24941, C177A/F80C); experiment: quantitative irreversible tethering (qIT): rate of cysteine modification of Cdk2(ES); format: binding; conditions: for kinact/KI at 500 µM: Cdk2(ES) 5 μM, read-out: Cdk2(ES): kobs/[I]; for covalent SAR by REF-based qIT analysis: compared with acrylamide 1 or parent analogue
T1 construct: GST (N, cleaved yes); made in house; host or cells: E. coli Tuner(DE3)
Method: (§1) Figure 2 Comparison of previous and current applications of Quantitative irreversible tethering (qIT). a) Overview of rate determination. A cysteine‐containing biomolecule is treated with covalent fragments under pseudo‐first‐order conditions. Reaction progress is followed by discrete measurement of free cysteine concentration by using the fluorogenic probe CPM, and rate constants (k obs) are derived from exponential regression analysis. b) Comparison of the reactivity profile of each fragment with the POI and GSH typically classes them as unreactive, reactive but non‐selective or reactive and selective. c) Quantification of kinetic POI/GSH selectivity facilitates hit identification. d) The observed rate of reaction between the POI and hit fragment is determined at a range of ligand concentrations by using qIT. Subsequent hyperbolic regression analysis is used to derive K i and k inact to facilitate comprehensive covSAR analysis.
Therefore, we set out to develop novel classes of electrophile sensitive kinase inhibitors using a covalent fragment approach. Accordingly, we screened a 138‐member library of diverse cysteine‐reactive fragments at 500 μM against Cdk2(ES) and GSH by using the qIT platform and monitored the kinetics of cysteine‐modification over 24 hours. […] Using three standard deviations over the geometric mean REF as the statistical cut‐off for defining hit fragments (REF >27.9) yielded two acrylamide fragments, tetrahydroquinoline 1 (REF=81) and pyrimidine S1 (REF=64) for further investigation (Figures 3c and S2). […]
D. Rate determination by qIT
Reaction-plate setup: Each well of a 96-well PCR plate was charged with 60–100 µL of target thiol (GSH or protein, 10 µM) and 4% w/v TCEP-agarose beads in 100 mM phosphate buffer (pH 7.5 or 8) and cooled to 4 °C. Reactions were started by addition of an equal volume of pre-cooled electrophile solution (1 mM, 2% DMSO) in 0.1 M phosphate buffer (final concentra-tion: thiol = 5 µM, electrophile = 0.5 mM, 2% w/v TCEP-agarose beads), with a minimum of 4 wells per plate used as DMSO/thiol only controls. After mixing, TCEP-agarose was pelleted by centrifugation (1,300 rpm, 1 min) and the plate incu-bated at 4 °C. CPM Quench: At a series of time points (typically around 0.25, 0.5, 1, 2, 6, 24, 48, 72 and 120 hours after reac-tion initiation), 3 µL aliquots of each reaction were quenched into a 384-well fluorescence plate (Corning – black, NBS) where each well was charged with 27 µL of CPM solution (1.39 µM) in 100 mM phosphate buffer (pH 7.5) (final concentration: thiol = 0.5 µM, CPM = 1.25 µM). Quenching was typically performed in duplicate and fluorescence plates were incubated at room temperature for 60 minutes before fluorescence intensity (excitation/emission: 384/470 nm) was measured on an EnVisionTM plate reader. Analysis: All analysis was performed using Prism 8.0 software (GraphPad). For each time point, the fluorescence of each reaction was normalized relative Cdk2(ES)/GSH only control = maximum signal, DMSO only = minimum signal. The normalized fluorescence for each reaction was plotted against time. A one phase exponential decay was fitted to each plot (Constraints: Y(0) > 0.8; 0 < plateau = 0), yielding a pseudo first-order rate constant.
Cdk2 mutations were introduced by PCR and cloned into pGEX6P1 Cdk2 (552), a gift from Jonathon Pines (Addgene plasmid # 61845) used to express GST-Cdk2(WT). GST-Cdk2(ES) = GST-Cdk2(F80C,C177A). All constructs were verified by se-quencing. pGEX6P1 cyclin A2 (amino acids 173-432) was generated by PCR and restriction digestion. GST-CAK1 was con-structed by PCR amplification of S.cerevisiae genomic DNA and the product cloned into pKEG-KG. All protein expression was performed using an adapted autoinduction protocol:[8] Plasmids were transformed into E. coli Tuner(DE3) and cultures grown in autoinduction media at 37 °C until OD600 = 0.9. The cultures were then incubated at 18 °C for a further 40 hours before […]

[2] = qIT: rate of reaction with glutathione (intrinsic reactivity); format: physicochemical; conditions: fragment 0.5 mM, glutathione 5 μM
Method: Previously we described a fluorescence‐based platform for screening cysteine‐targeting covalent fragments called quantitative irreversible tethering (qIT). ^[19] The method measures and compares the rate of reactions of individual fragments with the protein‐of‐interest (POI) and GSH (Figure 2a and b).
as §1, with “covSAR analysis. […]” for “covSAR analysis.”

Cdk2(ES) = molecular target: T2, Cdk2(ES) (Homo sapiens, UniProt P24941, C177A/F80C); experiment: concentration-dependent qIT with hyperbolic regression (Ki, kinact); format: binding; conditions: for kinact/KI / Ki / kinact: acrylamide 25-500 μM, Cdk2(ES) 5 μM; for Ki / kinact: hyperbolic fit of kobs
T2 construct: GST (N, cleaved yes); made in house; host or cells: E. coli Tuner(DE3)
Method: Next we sought to carry out comprehensive kinetic analysis of the covalent binding to better understand the covSAR trends. Accordingly, the concentration dependency for the rate of reaction between Cdk2(ES) and key acrylamides 1, 6, 9 and 11 were determined using qIT (Figure 7c). To maintain pseudo‐first‐order reaction kinetics and stay within the solubility limits of the fragments, ligands were titrated from 25 to 500 μM. […] Indeed, comparing the binding conformations of the merged (9 and 11) and parent (1 and 6) fragments, we observe a subtle shift in the position of the core scaffolds and the orientation of the acrylamide link that likely explains the jump in potency that resulted from fragment merging. Overall, comparing acrylamides 9 and 11, we observe in a 3.7‐fold increase in k inact/K i and a 4.3‐fold increase in REF, and the consistency between these two orthogonal metrics of covalent fragment potency is encouraging for future applications of qIT to covalent fragment optimization.
H. Intact-protein mass spectrometry
Protein-mass data were obtained on a Waters micromass LC-TOF mass spectrometer in positive ion mode using electrospray ionization. Samples were chromatographed using an Acquity UPLC protein BEH C4 column (2.1 mm × 50 mm, 2.7 µm) with a flow rate of 30 µL/min. The injection volume was 5 µL of protein solution (5 µM) in 30 mM ammonium bicarbonate buffer con-taining 0.5% formic acid and 20% MeOH. The gradient used was 100% mobile phase A (0.1% formic acid in water/MeOH (19:1)) ramping linearly to 90% mobile phase B (0.1% formic acid in MeOH) over 5 minutes. The spectra were acquired from 500 to 2500 Da and deconvolution was performed with MassLynx (Waters), using the maximum entropy algorithm, over a mass range of […] with a mass step of 0.75. […]
Cdk2(WT) or Cdk2(ES) (1 mg) was sequentially incubated with aliquots of CAK1 (3 × 0.05 mg) at r.t. for 4 hours at a time in 1.5 mL of a 30 mM Tris/HCl buffer (pH 7.5) containing 10 mM MgCl2, 10 mM ATP and 3 mM DTT. As CAK1 appeared to be-come rapidly inactivated in the presence of pCdk2, three repetitions were required to drive the reaction to completion. The resulting solution was incubated with 50 µL of glutathione-Sepharose beads and filtered to remove remaining CAK1.
Kinase assays were performed by coupling the conversion of ATP into ADP to the oxidation of NADH (Abs = 340 nm) into NAD+, mediated by lactate dehydrogenase (LDH) and pyruvate kinase (PK). WT, mutant or ligand-conjugated pCdk2 (12.5 or 50 nM) was preincubated with Cyclin A2 (20 nM) in a buffer containing 50 mM Tris/HCl, 10 mM MgCl2, 5 mM DTT, 1 mM phosphoenolpyruvate, 0.24 mM NADH, 10 U mL-1 LDH, 14 U mL-1 PK and 5% DMSO at 37 °C for 30 minutes. Reactions were initiated by addition of 0.5 mM ATP and 0.24 mM substrate peptide (PKTPKKAKKL) and the absorbance at 340 nm was moni-tored for two hours. Assays were conducted at 37 °C and carried out in clear 384-well plates (Nunc) using a SpectraMax i3x plate reader (Molecular Devices) with a final volume of 20 µL in each well. After plotting Abs 340 against time, enzyme velocity was measured from the gradient during the linear phase of product accumulation.
Q. Concentration dependent qIT
The rate of reaction (kobs) for the reaction between each acrylamide (25, 50, 125, 250 and 500 µM) with Cdk2(ES) (5 µM) was determined us qIT (see D. Rate Determination by qIT) in duplicate. The average kobs was plotted against acrylamide concen-tration and hyperbolic regression analysis performed using Prism 8.0 software (GraphPad) to derive kinact and Ki.

[3] = acrylamide 11 compared with acrylamide 9

Row | Structure (SMILES) | kinact/KI at 500 µM ([1]; fragment 0.5 mM) | covalent SAR by REF-based qIT analysis [1] | other results
1 | C=CC(=O)N1CCn2c1nc1ccccc12 [compound 2] | 0.68 M⁻¹ s⁻¹ |  | GSH: kobs/[I] [2]: 5.34 M⁻¹ s⁻¹
2 | C=CC(=O)N1CCCc2cc(C(=O)O)ccc21 [compound 3] |  | complete loss of activity | 
3 | C=CC(=O)N1CCCc2cc(C(N)=O)ccc21 [compound 4] |  | complete loss of activity | 
4 | C#CCNC(=O)c1ccc2c(c1)CCCN2C(=O)C=C [compound 5] |  | well tolerated | 
5 | C=CC(=O)N1CCN(C(C)=O)c2ccccc21 [compound 7] |  | loss of activity | 
6 | C=CC(=O)N1CCc2cc(C(=O)OC)ccc21 [compound 8] |  | tenfold loss in REF | 
7 | C=CC(=O)N1CCN(CC)c2cc(C(=O)OC)ccc21 [compound 9] | 8.48 M⁻¹ s⁻¹ |  | rate of reaction with Cdk2(ES) relative to acrylamide 1 ([1]; qIT): six times faster than acrylamide 1; rate enhancement factor (REF) ([1]; rate with Cdk2(ES) relative to rate with GSH, fragment 0.5 mM, thiol 5 μM): 182; kinact/KI (Cdk2(ES)): 4.76 M⁻¹ s⁻¹; Ki (Cdk2(ES)): 416 µM; kinact (Cdk2(ES)): 0.00198 s⁻¹
8 | C=CC(=O)N1CCN(C)c2cc(C(=O)OC)ccc21 [compound 10] | 1.91 M⁻¹ s⁻¹ | less Cdk2(ES) selective | 
9 | C=CC(=O)N1CCN(CC2CC2)c2cc(C(=O)OC)ccc21 [compound 11] | 19.5 M⁻¹ s⁻¹ | significant improvement in REF | fold increase in REF [1, 3]: 4.3 fold; fold increase in kinact/Ki (Cdk2(ES); [3]): 3.7 fold; kinact/KI (Cdk2(ES)): 17.7 M⁻¹ s⁻¹; Ki (Cdk2(ES)): 102 µM; kinact (Cdk2(ES)): 0.00181 s⁻¹
